Measured values published in US20170112789A1, “INTRAVENOUS BACLOFEN AND METHODS OF TREATMENT” (Allaysis, LLC, priority 2015, published 2017).

What was measured:
[1] = Pharmacokinetics of oral and intravenous baclofen at clinically relevant doses, dose escalation crossover study (Example 4); format: in vivo, human; conditions: for Cmax / half-life / bioavailability: human, plasma
Method: (§1) Thirty-six healthy adults participated in the study.
(§2) The thirty-six subjects were enrolled in a randomized, open-label, cross over study to evaluate the safety profile and pharmacokinetics of oral and an investigational intravenous baclofen formulation at clinically relevant doses. Three cohorts of twelve subjects received single doses of baclofen: 7.5, 11.5 or 15 mg intravenously and 10, 15, or 20 mg taken orally with a 48 hour washout phase. The highest dosing cohort received an additional 15 mg extended (60 minute) infusion. Blood samples for baclofen pharmacokinetic analysis were collected pre-dose and at regular intervals over a 24 hour time period. Over this 24 hour period subjects were assessed for sedation, nystagmus and ataxia to evaluate clinical response. Maximum concentration (Cmax) and time to maximum concentration (Tmax) were determined by visual inspection. Noncompartmental pharmacokinetic analyses were used to estimate area under the curve (AUC), half life (t1/2), clearance (CL) and volume of distribution. Absolute bioavailability was calculated using dose normalized oral and intravenous AUCs. Dose proportionality was assessed using analysis of variance (ANOVA) and a power model. Bioequivalence was evaluated using Phoenix Software (Centara, Pharsight Corporation, Mountain View, Calif.).

[2] = Pharmacokinetics and bioavailability of oral vs intravenous baclofen, randomized open-label 2-way crossover study (Example 3); format: in vivo, human; conditions: for Cmax: single dose
Method: (§3) Twelve healthy human volunteers were recruited. The volunteers were medication free for 48 hours before, during, and 24 hours after the administration of the study drug.
(§4) The 12 volunteers participated in a randomized, open-label, 2-way crossover study to compare the pharmacokinetics and bioavailability of oral baclofen with an intravenous baclofen formulation. The oral formulation was a 10 mg baclofen tablet. A single intravenous dose of 5 mg was administered over 15 minutes, using the commercially available 2 mg/mL intrathecal baclofen formulation (Lioresal Intrathecal). Blood samples (6 mL) for the measurement of plasma concentrations of baclofen were collected in blood collection tubes containing K2 ethylenediaminetetraacetic acid at the following times: prior to dosing; at 5, 15, and 30 minutes; and at 1, 2, 4, 6, 8, 10, 12, and 24 hours after drug administration.
Study plasma samples were prepared by adding 50 μL of a 500 μg/mL levetiracetam solution (internal standard) to 250 μL of K2 ethylenediaminetetraacetic acid (EDTA) human plasma. Baclofen and the internal standard were extracted from plasma by precipitating the protein with methanol and drying it under nitrogen at approximately 40° C. The dried residues were reconstituted in 300 μL of a mobile phase consisting of 20 mM ammonium acetate-methanol (75:25) solution. After 1 minute of vortex mixing, the reconstituted sample solution was filtered and injected onto the high-performance liquid chromatograph-mass spectrometer system. Standard curve samples over a range of 20 to 400 ng/mL baclofen and quality control samples containing 30 (low), 80 (medium), and 240 ng/mL (high) baclofen were prepared and analyzed in triplicate along with the study samples. The assay was linear over the range 20-400 ng/mL with a lower limit of quantification of 20 ng/mL.
Baclofen concentration-time data were analyzed using a noncompartmental pharmacokinetic approach with Phoenix software (version 6.2; Pharsight Corporation, Mountain View, Calif.). The terminal rate constant (λz) was determined from the slope of the terminal log-linear portion of the plasma concentration-time curve, and the terminal half-life (t1/2) was calculated as In 2/(λz). Maximum plasma concentrations (Cmax) and time to maximum concentration (Tmax) were determined by direct observation of the data. The area under the concentration-time curve to the last nonzero plasma concentration (Clast) that was above half the lower limit of quantification (10 ng/mL) was calculated by the trapezoidal rule and reported as AUClast The area under the concentration-time curve extrapolated to infinity (AUC0-∞) was calculated as AUClast+(Clast/λz). Mean and standard deviation values for the parameters were also obtained using the descriptive statistics tool in Phoenix version 6.2. A paired t-test was used to determine if statistical differences existed in log normalized, dose-adjusted area under the curve between oral and intravenous arms.

[3] = cited from earlier work
healthy human volunteers = experiment: Tolerability of the intravenous formulation in the crossover study (Example 3); format: in vivo
Method: as §3, §4

healthy adults = experiment: Tolerability/safety (sedation, nystagmus, ataxia) in the dose escalation study (Example 4); format: in vivo, human; conditions: for subjects with asymptomatic nystagmus: 10 minute infusion, of twelve subjects
Method: as §1, §2

[4] = iv, 7.5 mg, IV 10 min infusion 7.5 mg, mean
[5] = iv, 11.5 mg, IV 10 min infusion 11.5 mg, mean
[6] = iv, 15 mg, IV 10 min infusion 15 mg, mean
[7] = iv, 15 mg, IV 60 min infusion 15 mg, mean
[8] = human, plasma, 5 mg IV, mean ± SD
[9] = human, plasma, 10 mg oral, mean ± SD

NCC(CC(=O)O)c1ccc(Cl)cc1 (racemic) [Baclofen, 4-amino-3-(4-chlorophenyl) butanoic acid]
Cmax ration ([1]; 15 mg intravenous infusion over 10 minutes vs oral): 263%
Cmax ration ([1]; 15 mg intravenous infusion over 60 minutes vs oral): 149%
dose proportionality of AUC ([1]; ANOVA and power model analysis): greater than proportional increase with dose
AUC(0-inf) ([1]; IV 10 min infusion 7.5 mg, mean): 562 ng·h/mL
AUC(0-inf) ([1]; IV 10 min infusion 11.5 mg, mean): 1186 ng·h/mL
AUC(0-inf) ([1]; IV 10 min infusion 15 mg, mean): 1520 ng·h/mL
AUC(0-inf) ([1]; IV 60 min infusion 15 mg, mean): 1447 ng·h/mL
AUC(0-inf) ([1]; PO 10 mg, mean): 714 ng·h/mL
AUC(0-inf) ([1]; PO 15 mg, mean): 1201 ng·h/mL
AUC(0-inf) ([1]; PO 20 mg, mean): 1598 ng·h/mL
bioequivalence of oral and intravenous doses ([1]; based on AUC and Cmax): bioequivalent based on AUC, but not based on Cmax
dose proportionality of mean Cmax ([1]; both forms of administration, ANOVA and power model): increased proportionally with dose
Cmax [1, 4]: 310 ng/mL
half-life [1, 4]: 3.37 h
Cmax [1, 5]: 524 ng/mL
half-life [1, 5]: 4.97 h
Cmax [1, 6]: 720 ng/mL
half-life [1, 6]: 5.82 h
Cmax [1, 7]: 382 ng/mL
half-life [1, 7]: 6.22 h
bioavailability ([1]; oral, data from all cohorts combined, read-out: mean bioavailability): 89%
Cmax ([1]; po, 10 mg, PO 10 mg, mean): 124 ng/mL
half-life ([1]; po, 10 mg, PO 10 mg, mean): 3.94 h
Cmax ([1]; po, 15 mg, PO 15 mg, mean): 201 ng/mL
half-life ([1]; po, 15 mg, PO 15 mg, mean): 4.65 h
Cmax ([1]; po, 20 mg, PO 20 mg, mean): 255 ng/mL
half-life ([1]; po, 20 mg, PO 20 mg, mean): 5.49 h
bioavailability ([1]; po, data from all cohorts combined, read-out: absolute oral bioavailability, range): 42 to 132%
bioavailability ([1]; PO 10 mg (cohort 1), mean, read-out: Bioavailability): 102%
bioavailability ([1]; PO 15 mg (cohort 2), mean, read-out: Bioavailability): 80%
bioavailability ([1]; PO 20 mg (cohort 3), mean, read-out: Bioavailability): 85%
time point of observed maximum baclofen concentration ([2]; 5 mg IV formulation): 5 min
AUC0-∞/Dose ([2]; 5 mg IV, mean ± SD): 141 ± 33 ng·h/mL/mg
AUC0-∞/Dose ([2]; 10 mg oral, mean ± SD): 102 ± 23 ng·h/mL/mg
T1/2 ([2]; 10 mg oral, mean ± SD): 4.03 ± 0.73 h
half-life ([2]; human, plasma, iv, 5 mg, 5 mg IV, mean ± SD): 4.52 h
bioavailability ([2]; human, plasma, oral, 10 mg, 10 mg oral tablet, absolute, vs 5 mg IV, mean ± SD): 74%
half-life ([2]; human, plasma, po, 10 mg, 10 mg oral, mean ± SD): 4 h
AUC(0-inf) [2, 8]: 707 ± 166 ng·h/mL
AUC(0-t) [2, 8]: 593 ± 111 ng·h/mL
AUC(0-inf) [2, 9]: 1020 ± 232 ng·h/mL
AUC(0-t) [2, 9]: 878 ± 199 ng·h/mL
Tmax ([2]; human, plasma, 10 mg oral, median (min, max)): 1 h
Cmax ([2]; human, 5 mg IV over 15 minutes, plasma, mean ± SD, 12 volunteers): 310 ng/mL
Cmax ([2]; human, 10 mg oral tablet, plasma, mean ± SD): 174 ng/mL
solubility in water [3]: slightly soluble in water
tolerability of the intravenous formulation (healthy human volunteers; 5 mg IV over 15 minutes): well tolerated
severity of treatment-emergent adverse events (healthy human volunteers; characterized by the investigator): mild in severity
time for all subjects to return to baseline values after drug administration (healthy human volunteers; in vivo): ≤ 6 h
subjects with asymptomatic nystagmus (healthy adults; 7.5 mg): two
subjects with asymptomatic nystagmus (healthy adults; 11.5 mg): six
occurrence of nystagmus (healthy adults; 15 mg 60 minute infusion): not observed
subjects with asymptomatic nystagmus (healthy adults; 15 mg): six
ataxia (healthy adults; after the 20 mg oral dose): one subject experienced mild transient ataxia
tolerability (healthy adults; all oral and IV doses): generally well tolerated
sedation, changes from baseline (healthy adults; by route of administration or by dose): not statistically significant
adverse effects (healthy adults; following both oral and intravenous doses): Mild, self-limited adverse effects
